# Where two headings read alike, the source gives them in different places.
# Assay: Plasma pharmacokinetics of lorlatinib at steady state (LC-MS/MS, non-compartmental analysis)
# Type: in vivo, human
# Details: human, plasma, oral; for Cmax: read-out: Cmax; for Tmax: read-out: Tmax
# Text: Lorlatinib was isolated from human plasma by a liquid-iquid extraction procedure. […] A linear-log trapezoidal method was used [NT] A best-fit method was used to estimate terminal elimination and to extrapolate any plasma concentration versus time profiles to compute [NT].
# [1] = 60 mg/m2, Cohort A1, 60 mg/m2 per dose, C1D15, individual patient
# [2] = 60 mg/m2, Cycle 1 Day 1, Cohort A1, 60 mg/m2 per dose, individual patients
# [3] = 60 mg/m2, Cycle 1 Day 15, Cohort A1, 60 mg/m2 per dose, individual patients
# [4] = 75 mg/m2, Cohort A1, 75 mg/m2 per dose, C1D15, Geometric Mean, N 3
# [5] = 75 mg/m2, Cohort A1, 75 mg/m2 per dose, C1D15, Median, N 3
# [6] = 75 mg/m2, Cycle 1 Day 1, Cohort A1, 75 mg/m2 per dose, individual patients
# [7] = 95 mg/m2, Cohort A1, 95 mg/m2 per dose, C1D15, Geometric Mean, N 9
# [8] = 95 mg/m2, Cohort A1, 95 mg/m2 per dose, C1D15, Median, N 9
# [9] = 95 mg/m2, Cohort B2, 95 mg/m2 per dose, C1D15, Geometric Mean, N 2
# [10] = 95 mg/m2, Cohort B2, 95 mg/m2 per dose, C1D15, Median, N 2
# [11] = 95 mg/m2, Cohort B2, 95 mg/m2 per dose, C1D15, individual patient
# [12] = 95 mg/m2, Cycle 1 Day 1, Cohort A1, 95 mg/m2 per dose
# [13] = 95 mg/m2, Cycle 1 Day 1, Cohort B2, 95 mg/m2 per dose
# [14] = 95 mg/m2, Cycle 1 Day 1, Cohort A1, 95 mg/m2 per dose, individual patients
# [15] = 95 mg/m2, Cycle 1 Day 15, Cohort B2, 95 mg/m2 per dose
# [16] = 95 mg/m2, steady state, Cohort B2 (with topotecan/cyclophosphamide), 95 mg/m^2 QD, individual values
# [17] = 100 mg, Cohort A2, 100 mg per dose, C1D15, Geometric Mean, N 5
# [18] = 100 mg, Cohort A2, 100 mg per dose, C1D15, Median, N 5
# [19] = 100 mg, Cycle 1 Day 1, Cohort A2, 100 mg per dose, individual patients
# [20] = 150 mg per dose, Cycle 1 Day 1, Cohort A2, 150 mg per dose
# [21] = 150 mg per dose, Cycle 1 Day 15, Cohort A2, 150 mg per dose
# [22] = 150 mg, Cohort A2, 150 mg per dose, C1D15, Geometric Mean, N 10
# [23] = 150 mg, Cohort A2, 150 mg per dose, C1D15, Median, N 10
# [24] = 150 mg, Cycle 1 Day 1, Cohort A2, 150 mg per dose, individual patients
# [25] = 150 mg, Cycle 1 Day 15, Cohort A2, 150 mg per dose, individual patients
compound,measurement,setting,value
"C[C@H]1Oc2cc(cnc2N)-c2c(nn(C)c2C#N)CN(C)C(=O)c2ccc(F)cc21 [Lorlatinib, (10R)-7-amino-12-fluoro-2,10,16-trimethyl-15-oxo-10,15,16,17-tetrahydro-2H-8,4-(metheno)pyrazolo[4,3-h][2,5,11]-benzoxadiazacyclotetradecine-3-carbonitrile]",Cmax,[1],623 ng/mL
same,Tmax,[1],2 h
same,AUC(0-t),[2],3960 ng·h/mL
same,MRT last,[2],6.96 h
same,Cmax,[2],761 ng/mL
same,Tmax,[2],1 h
same,AUC(0-t),[3],4140 ng·h/mL
same,AUC(0-inf),"60 mg/m2, Cycle 1 Day 15, Cohort A1, 60 mg/m2 per dose, individual patients, read-out: AUCINF_obs",5050 ng·h/mL
same,AUC(0-inf),"60 mg/m2, Cycle 1 Day 15, Cohort A1, 60 mg/m2 per dose, individual patients, read-out: AUCINF_pred",5040 ng·h/mL
same,AUC,"60 mg/m2, Cycle 1 Day 15, Cohort A1, 60 mg/m2 per dose, individual patients, read-out: AUC_TAU",4140 ng·h/mL
same,AUC,"60 mg/m2, Cycle 1 Day 15, Cohort A1, 60 mg/m2 per dose, individual patients, read-out: AUCall",4140 ng·h/mL
same,Cmax,[3],623 ng/mL
same,MRT inf,"60 mg/m2, Cycle 1 Day 15, Cohort A1, 60 mg/m2 per dose, individual patients, read-out: MRTINF_obs",13 h
same,MRT inf,"60 mg/m2, Cycle 1 Day 15, Cohort A1, 60 mg/m2 per dose, individual patients, read-out: MRTINF_pred",12.9 h
same,Tmax,[3],2 h
same,AUC,"60 mg/m2, steady state, Cohort A1, 60 mg/m^2 QD, (CV), read-out: AUCtau",3930 ng·h/mL
same,Cmax,"60 mg/m2, steady state, Cohort A1, 60 mg/m^2 QD, (CV)",492 ng/mL
same,Tmax,"60 mg/m2, steady state, Cohort A1, 60 mg/m^2 QD",2 h
same,AUC,"75 mg/m2, Cohort A1, 75 mg/m2 per dose, C1D15, Geometric Mean, N 3, read-out: AUC_TAU",4150 ng·h/mL
same,Cmax,[4],645 ng/mL
same,Tmax,[4],2.29 h
same,AUC,"75 mg/m2, Cohort A1, 75 mg/m2 per dose, C1D15, Median, N 3, read-out: AUC_TAU",4020 ng·h/mL
same,Cmax,[5],659 ng/mL
same,Tmax,[5],2 h
same,Cmax,"75 mg/m2, Cohort A1, 75 mg/m2 per dose, C1D15, individual patient",659 ng/mL
same,AUC(0-t),[6],6740 ng·h/mL
same,MRT last,[6],7.77 h
same,AUC,"75 mg/m2, Cycle 1 Day 1, Cohort A1, 75 mg/m2 per dose, individual patients, read-out: AUCall",6740 ng·h/mL
same,Cmax,[6],961 ng/mL
same,Tmax,[6],1 h
same,AUC(0-inf),"75 mg/m2, Cycle 1 Day 15, Cohort A1, 75 mg/m2 per dose, individual patients, read-out: AUCINF_obs",4500 ng·h/mL
same,AUC(0-inf),"75 mg/m2, Cycle 1 Day 15, Cohort A1, 75 mg/m2 per dose, individual patients, read-out: AUCINF_pred",4490 ng·h/mL
same,Cmax,"75 mg/m2, Cycle 1 Day 15, Cohort A1, 75 mg/m2 per dose, individual patients",659 ng/mL
same,MRT inf,"75 mg/m2, Cycle 1 Day 15, Cohort A1, 75 mg/m2 per dose, individual patients, read-out: MRTINF_obs",10.3 h
same,MRT inf,"75 mg/m2, Cycle 1 Day 15, Cohort A1, 75 mg/m2 per dose, individual patients, read-out: MRTINF_pred",10.3 h
same,AUC,"75 mg/m2, steady state, Cohort A1, 75 mg/m^2 QD, (CV), read-out: AUCtau",4160 ng·h/mL
same,Cmax,"75 mg/m2, steady state, Cohort A1, 75 mg/m^2 QD, (CV)",645 ng/mL
same,Tmax,"75 mg/m2, steady state, Cohort A1, 75 mg/m^2 QD",2 h
same,AUC,"95 mg/m2, Cohort A1, 95 mg/m2 per dose, C1D15, Geometric Mean, N 9, read-out: AUC_TAU",7470 ng·h/mL
same,Cmax,[7],1020 ng/mL
same,Tmax,[7],1.47 h
same,AUC,"95 mg/m2, Cohort A1, 95 mg/m2 per dose, C1D15, Median, N 9, read-out: AUC_TAU",6910 ng·h/mL
same,Cmax,[8],1100 ng/mL
same,Tmax,[8],1 h
same,AUC,"95 mg/m2, Cohort B2, 95 mg/m2 per dose, C1D15, Geometric Mean, N 2, read-out: AUC_TAU",6690 ng·h/mL
same,Cmax,[9],817 ng/mL
same,Tmax,[9],2.83 h
same,AUC,"95 mg/m2, Cohort B2, 95 mg/m2 per dose, C1D15, Median, N 2, read-out: AUC_TAU",6810 ng·h/mL
same,Cmax,[10],824 ng/mL
same,Tmax,[10],3 h
same,AUC,"95 mg/m2, Cohort B2, 95 mg/m2 per dose, C1D15, individual patient, read-out: AUC_TAU",8100 ng·h/mL
same,Cmax,[11],926 ng/mL
same,Tmax,[11],4 h
same,MRT last,[12],7.38 h
same,Tmax,[12],1 h
same,Cmax,[13],914 ng/mL
same,Tmax,[13],2 h
same,MRT last,[14],9.06 h
same,Tmax,[14],2 h
same,Tmax,"95 mg/m2, Cycle 1 Day 15, Cohort A1, 95 mg/m2 per dose",1 h
same,AUC(0-t),[15],8100 ng·h/mL
same,AUC(0-inf),"95 mg/m2, Cycle 1 Day 15, Cohort B2, 95 mg/m2 per dose, read-out: AUCINF_obs",5730 ng·h/mL
same,AUC(0-inf),"95 mg/m2, Cycle 1 Day 15, Cohort B2, 95 mg/m2 per dose, read-out: AUCINF_pred",5730 ng·h/mL
same,AUC,"95 mg/m2, Cycle 1 Day 15, Cohort B2, 95 mg/m2 per dose, read-out: AUC_TAU",8100 ng·h/mL
same,AUC,"95 mg/m2, Cycle 1 Day 15, Cohort B2, 95 mg/m2 per dose, read-out: AUCall",8100 ng·h/mL
same,Cmax,[15],926 ng/mL
same,MRT inf,"95 mg/m2, Cycle 1 Day 15, Cohort B2, 95 mg/m2 per dose, read-out: MRTINF_obs",7.79 h
same,MRT inf,"95 mg/m2, Cycle 1 Day 15, Cohort B2, 95 mg/m2 per dose, read-out: MRTINF_pred",7.77 h
same,Tmax,[15],4 h
same,MRT inf,"95 mg/m2, Cycle 1 Day 15, Cohort A1, 95 mg/m2 per dose, individual patients, read-out: MRTINF_obs",20.6 h
same,MRT inf,"95 mg/m2, Cycle 1 Day 15, Cohort A1, 95 mg/m2 per dose, individual patients, read-out: MRTINF_pred",20.5 h
same,AUC,"95 mg/m2, steady state, Cohort A1, 95 mg/m^2 QD, (CV), read-out: AUCtau",7470 ng·h/mL
same,Cmax,"95 mg/m2, steady state, Cohort A1, 95 mg/m^2 QD, (CV)",1020 ng/mL
same,Tmax,"95 mg/m2, steady state, Cohort A1, 95 mg/m^2 QD",1 h
same,AUC,"95 mg/m2, steady state, Cohort B2 (with topotecan/cyclophosphamide), 95 mg/m^2 QD, individual values, read-out: AUCtau",8100 ng·h/mL
same,Cmax,[16],926 ng/mL
same,Tmax,[16],4 h
same,AUC,"100 mg, Cohort A2, 100 mg per dose, C1D15, Geometric Mean, N 5, read-out: AUC_TAU",6790 ng·h/mL
same,Cmax,[17],789 ng/mL
same,Tmax,[17],1.74 h
same,AUC,"100 mg, Cohort A2, 100 mg per dose, C1D15, Median, N 5, read-out: AUC_TAU",6130 ng·h/mL
same,Cmax,[18],569 ng/mL
same,Tmax,[18],2 h
same,MRT last,[19],12.4 h
same,Tmax,[19],2 h
same,MRT inf,"100 mg, Cycle 1 Day 15, Cohort A2, 100 mg per dose, individual patients, read-out: MRTINF_obs",23.8 h
same,MRT inf,"100 mg, Cycle 1 Day 15, Cohort A2, 100 mg per dose, individual patients, read-out: MRTINF_pred",23.7 h
same,AUC,"100 mg, steady state, Cohort A2, 100 mg QD, (CV), read-out: AUCtau",6790 ng·h/mL
same,Cmax,"100 mg, steady state, Cohort A2, 100 mg QD, (CV)",789 ng/mL
same,Tmax,"100 mg, steady state, Cohort A2, 100 mg QD",2 h
same,AUC(0-t),[20],8990 ng·h/mL
same,MRT last,[20],9.33 h
same,AUC,"150 mg per dose, Cycle 1 Day 1, Cohort A2, 150 mg per dose, read-out: AUCall",8990 ng·h/mL
same,Tmax,[20],1 h
same,AUC(0-t),[21],5000 ng·h/mL
same,AUC,"150 mg per dose, Cycle 1 Day 15, Cohort A2, 150 mg per dose, read-out: AUCall",5000 ng·h/mL
same,Tmax,[21],2 h
same,AUC,"150 mg, Cohort A2, 150 mg per dose, C1D15, Geometric Mean, N 10, read-out: AUC_TAU",6680 ng·h/mL
same,Cmax,[22],741 ng/mL
same,Tmax,[22],1.41 h
same,AUC,"150 mg, Cohort A2, 150 mg per dose, C1D15, Median, N 10, read-out: AUC_TAU",6890 ng·h/mL
same,Cmax,[23],710 ng/mL
same,Tmax,[23],1 h
same,AUC,"150 mg, Cohort A2, 150 mg per dose, C1D15, individual patient, read-out: AUC_TAU",5920 ng·h/mL
same,AUC(0-t),[24],5920 ng·h/mL
same,MRT last,[24],8.35 h
same,AUC,"150 mg, Cycle 1 Day 1, Cohort A2, 150 mg per dose, individual patients, read-out: AUCall",5920 ng·h/mL
same,Cmax,[24],564 ng/mL
same,Tmax,[24],1 h
same,AUC,"150 mg, Cycle 1 Day 15, Cohort A2, 150 mg per dose, read-out: AUC_TAU",5000 ng·h/mL
same,AUC(0-t),[25],7380 ng·h/mL
same,AUC(0-inf),"150 mg, Cycle 1 Day 15, Cohort A2, 150 mg per dose, individual patients, read-out: AUCINF_pred",8770 ng·h/mL
same,AUC,"150 mg, Cycle 1 Day 15, Cohort A2, 150 mg per dose, individual patients, read-out: AUC_TAU",7380 ng·h/mL
same,AUC,"150 mg, Cycle 1 Day 15, Cohort A2, 150 mg per dose, individual patients, read-out: AUCall",7380 ng·h/mL
same,concentration at 24 h,"150 mg, Cycle 1 Day 15, Cohort A2, 150 mg per dose, individual patients, read-out: Clast_pred",128 ng/mL
same,Cmax,[25],658 ng/mL
same,MRT inf,"150 mg, Cycle 1 Day 15, Cohort A2, 150 mg per dose, individual patients, read-out: MRTINF_obs",16.8 h
same,MRT inf,"150 mg, Cycle 1 Day 15, Cohort A2, 150 mg per dose, individual patients, read-out: MRTINF_pred",16.7 h
same,AUC,"150 mg, steady state, Cohort A2, 150 mg QD, (CV), read-out: AUCtau",6680 ng·h/mL
same,Cmax,"150 mg, steady state, Cohort A2, 150 mg QD, (CV)",741 ng/mL
same,Tmax,"150 mg, steady state, Cohort A2, 150 mg QD",1 h
